Test results taken from PMC6028563, “Probing Substituents in the 1- and 3-Position: Tetrahydropyrazino-Annelated Water-Soluble Xanthine Derivatives as Multi-Target Drugs With Potent Adenosine Receptor Antagonistic Activity” (Frontiers in Chemistry, 2018).
In brackets after ≈: the same amount, converted by molar mass. Where two headings read alike, the source gives them in different places.

How the values were obtained:
human A1 AR [1] = target: T1, human A1 AR (Homo sapiens, UniProt P30542); assay: Radioligand binding assay at human A1 AR vs. [^3H]CCPA; settings: human (h); CHO cell membranes; n = 3
T1 construct: expressed in transfected cells; host or cells: CHO cells
T1 sequence (P30542 1-326): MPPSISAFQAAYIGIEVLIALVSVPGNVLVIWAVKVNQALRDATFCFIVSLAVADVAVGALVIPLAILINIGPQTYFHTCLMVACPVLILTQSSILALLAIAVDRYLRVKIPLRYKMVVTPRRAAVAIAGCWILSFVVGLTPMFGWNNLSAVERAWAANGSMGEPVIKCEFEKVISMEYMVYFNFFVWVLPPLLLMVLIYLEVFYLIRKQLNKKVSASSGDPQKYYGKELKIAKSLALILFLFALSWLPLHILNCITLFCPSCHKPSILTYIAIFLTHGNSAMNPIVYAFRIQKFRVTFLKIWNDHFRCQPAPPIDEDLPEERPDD
Summary of the method: (§1)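 Competition binding; rat A1: brain cortex membranes; rat A2A: brain striatum membranes; human A1/A2A/A2B/A3: membranes from CHO cells each expressing one human subtype. Affinity only, no functional testing.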

rat A1 AR = target: T2, rat A1 AR (Rattus norvegicus, UniProt P25099); assay: Radioligand binding assay at rat A1 AR (rat brain cortex) vs. [^3H]CCPA; settings: rat (r); rat brain cortex; n = 3
T2 construct: A1 ARs of rat brain cortical membrane; from tissue; host or cells: rat brain cortex membranes
T2 sequence (P25099 1-326): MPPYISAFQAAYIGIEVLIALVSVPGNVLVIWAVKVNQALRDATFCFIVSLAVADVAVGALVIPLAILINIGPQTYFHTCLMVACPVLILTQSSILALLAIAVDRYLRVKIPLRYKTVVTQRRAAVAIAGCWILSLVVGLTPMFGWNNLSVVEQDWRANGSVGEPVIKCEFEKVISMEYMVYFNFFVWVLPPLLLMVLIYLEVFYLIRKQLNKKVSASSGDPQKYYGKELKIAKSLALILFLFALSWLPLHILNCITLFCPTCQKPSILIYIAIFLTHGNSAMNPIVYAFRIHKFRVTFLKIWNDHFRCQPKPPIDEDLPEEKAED
Summary of the method: as §1

human A2A AR [2] = target: T3, human A2A AR (Homo sapiens, UniProt P29274); assay: Radioligand binding assay at human A2A AR vs. [^3H]MSX-2
T3 construct: expressed in transfected cells; host or cells: CHO cells
T3 sequence (P29274 whole entry): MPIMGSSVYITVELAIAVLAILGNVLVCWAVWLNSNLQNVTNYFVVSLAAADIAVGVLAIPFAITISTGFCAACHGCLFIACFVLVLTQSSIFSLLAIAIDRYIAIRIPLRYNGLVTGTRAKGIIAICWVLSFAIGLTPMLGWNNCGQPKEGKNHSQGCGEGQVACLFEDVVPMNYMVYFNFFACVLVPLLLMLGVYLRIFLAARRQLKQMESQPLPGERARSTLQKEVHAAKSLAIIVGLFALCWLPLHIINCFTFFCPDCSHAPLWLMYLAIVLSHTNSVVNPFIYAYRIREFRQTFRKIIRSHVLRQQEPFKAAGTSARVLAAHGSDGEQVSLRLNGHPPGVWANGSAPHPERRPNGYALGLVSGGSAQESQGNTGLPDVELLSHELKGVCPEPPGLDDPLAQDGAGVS
Procedure: Membrane preparations and radioligand binding assays at rat A1 (rat brain cortex) and rat A2A ARs (rat brain striatum) were performed as previously described (Ozola et al., [2003]; Alnouri et al., [2015]). For assays at human A1, A2A, A2B, and A3 ARs, CHO cell membranes expressing one of the human AR subtypes were used as previously reported (Klotz et al., [1998]; Alnouri et al., [2015]; De Filippo et al., [2016]).
The synthesized tetrahydropyrazino[2,1-f ]purinediones 13–20 were evaluated in radioligand binding assays for their affinity to A1 ARs of rat brain cortical membrane and to A2A ARs of rat brain striatal membrane preparations. Selected compounds were further investigated for their affinity to human A1 and A2A ARs recombinantly expressed in Chinese hamster ovary (CHO) cells. All compounds were additionally investigated for their affinity to human A2B and A3 ARs recombinantly expressed in CHO cells to determine their AR subtype selectivity. […] It is well known that all xanthine derivatives lacking a ribose moiety, including tricyclic compounds, can only block ARs, but never act as AR agonists; therefore, additional functional studies were not required. […] Potent MAO-B inhibitors were additionally investigated for inhibition of human MAO-A to assess their selectivity. Results are presented in Tables 1–6, and data of standard ligands are included for comparison.

rat A2A AR = target: T4, rat A2A AR (Rattus norvegicus, UniProt P30543); assay: Radioligand binding assay at rat A2A AR (rat brain striatum) vs. [^3H]MSX-2; settings: rat (r); for Ki: rat brain striatum, n = 3, read-out: Ki ± SEM, A2A vs. [^3H]MSX-2; for % inhibition of radioligand binding at indicated concentration, A2A vs. [^3H]MSX-2: at 1,000 nM
T4 construct: A2A ARs of rat brain striatal membrane preparations; from tissue; host or cells: rat brain striatum membranes
T4 sequence (P30543 whole entry): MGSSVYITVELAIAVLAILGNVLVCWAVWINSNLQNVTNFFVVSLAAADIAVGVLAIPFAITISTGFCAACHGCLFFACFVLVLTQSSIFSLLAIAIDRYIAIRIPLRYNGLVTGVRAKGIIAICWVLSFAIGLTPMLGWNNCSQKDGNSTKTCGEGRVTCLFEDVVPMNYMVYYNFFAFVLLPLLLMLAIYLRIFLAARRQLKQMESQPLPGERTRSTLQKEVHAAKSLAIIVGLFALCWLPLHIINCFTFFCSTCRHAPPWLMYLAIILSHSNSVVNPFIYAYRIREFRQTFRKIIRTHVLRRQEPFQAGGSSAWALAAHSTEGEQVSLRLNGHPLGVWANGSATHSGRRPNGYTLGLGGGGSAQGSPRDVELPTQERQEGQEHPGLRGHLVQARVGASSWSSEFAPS
Summary of the method: as §1

human A3 AR = target: T5, human A3 AR (Homo sapiens, UniProt P0DMS8); assay: Radioligand binding assay at human A3 AR vs. [^3H]PSB-11; settings: CHO cell membranes, n = 2 (n = 3 where marked a), read-out: Ki ± SEM, A3 vs. [^3H]PSB-11
T5 construct: expressed in transfected cells; host or cells: CHO cells
T5 sequence (P0DMS8 1-318): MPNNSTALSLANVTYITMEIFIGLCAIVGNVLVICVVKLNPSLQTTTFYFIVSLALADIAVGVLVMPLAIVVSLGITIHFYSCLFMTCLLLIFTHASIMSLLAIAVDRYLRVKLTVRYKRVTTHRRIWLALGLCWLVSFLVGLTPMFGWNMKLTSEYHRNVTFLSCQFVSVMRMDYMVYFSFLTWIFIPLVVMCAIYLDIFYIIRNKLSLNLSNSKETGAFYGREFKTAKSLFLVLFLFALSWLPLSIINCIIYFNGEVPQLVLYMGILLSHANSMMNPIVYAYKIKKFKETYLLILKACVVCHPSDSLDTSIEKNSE
Summary of the method: as §1

recombinant human MAO-A = target: T6, recombinant human MAO-A (Homo sapiens, UniProt P21397); assay: Monoamine oxidase assay (Amplex Red), MAO-A; assay type: biochemical; settings: for inhibition at 10 µM: at 10,000 nM, read-out: % inhibition at indicated concentration, Human MAO-A; for IC50: n = 3, read-out: IC50 ± SEM, Human MAO-A
T6 construct: purchased Sigma-Aldrich M7316; host or cells: baculovirus-infected insect cells
T6 sequence (P21397 1-527): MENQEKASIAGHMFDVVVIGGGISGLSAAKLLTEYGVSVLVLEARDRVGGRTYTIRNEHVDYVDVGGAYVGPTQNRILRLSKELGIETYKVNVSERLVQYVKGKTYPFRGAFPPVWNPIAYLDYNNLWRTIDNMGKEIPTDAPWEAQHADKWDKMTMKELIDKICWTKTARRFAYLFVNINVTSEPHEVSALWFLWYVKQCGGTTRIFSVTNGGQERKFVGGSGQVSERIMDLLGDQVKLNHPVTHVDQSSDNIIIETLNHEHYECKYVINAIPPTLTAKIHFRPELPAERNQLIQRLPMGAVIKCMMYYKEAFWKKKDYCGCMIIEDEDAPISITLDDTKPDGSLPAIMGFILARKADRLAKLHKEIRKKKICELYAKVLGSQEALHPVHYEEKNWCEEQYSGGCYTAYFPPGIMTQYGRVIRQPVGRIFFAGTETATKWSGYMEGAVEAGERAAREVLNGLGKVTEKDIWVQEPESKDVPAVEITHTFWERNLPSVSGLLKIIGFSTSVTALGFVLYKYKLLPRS
Procedure: The determination of MAO-A and MAO-B inhibition was performed using commercially available recombinant human MAO-A and MAO-B enzymes expressed in baculovirus-infected insects sells (Sigma-Aldrich, M7316 and M7441) applying the commercially available Amplex® Red monoamine oxidase assay kit (Invitrogen A12214). The assays were performed as previously described. The determination of rat MAO-B inhibition was performed using mitochondrial-enriched fractions from male Sprague Dawley rat livers. […]

recombinant human MAO-B [3] = target: T7, recombinant human MAO-B (Homo sapiens, UniProt P27338); assay: Monoamine oxidase assay (Amplex Red), MAO-B; assay type: biochemical; settings: for IC50: n = 3, read-out: IC50 ± SEM, Human MAO-B; for inhibition at 10 µM: at 10,000 nM (10 μM), read-out: % inhibition at indicated concentration, Human MAO-B
T7 construct: purchased Sigma-Aldrich M7441; host or cells: baculovirus-infected insect cells
T7 sequence (P27338 1-520): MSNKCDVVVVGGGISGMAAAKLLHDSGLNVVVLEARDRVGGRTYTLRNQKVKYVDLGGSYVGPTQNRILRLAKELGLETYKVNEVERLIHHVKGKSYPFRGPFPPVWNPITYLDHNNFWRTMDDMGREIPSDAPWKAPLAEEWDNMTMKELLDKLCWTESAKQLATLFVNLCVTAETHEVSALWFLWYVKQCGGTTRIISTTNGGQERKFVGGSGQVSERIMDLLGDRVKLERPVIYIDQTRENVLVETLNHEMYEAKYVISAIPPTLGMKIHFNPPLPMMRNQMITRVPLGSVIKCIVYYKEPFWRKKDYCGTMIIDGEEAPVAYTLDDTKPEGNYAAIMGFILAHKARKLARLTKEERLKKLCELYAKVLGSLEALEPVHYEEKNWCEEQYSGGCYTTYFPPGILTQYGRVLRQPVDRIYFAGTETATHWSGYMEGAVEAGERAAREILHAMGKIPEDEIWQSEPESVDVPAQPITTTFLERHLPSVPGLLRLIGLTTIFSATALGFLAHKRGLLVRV
Summary of the method: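 Inhibition was measured with an Amplex Red monoamine oxidase assay, using human MAO-A and MAO-B produced recombinantly in baculovirus-infected insect cells. For rat MAO-B, liver mitochondria-enriched fractions from male Sprague Dawley rats served as enzyme source.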

human A2B AR = target: T8, human A2B AR (Homo sapiens, UniProt P29275); assay: Radioligand binding assay at human A2B AR vs. [^3H]PSB-603
T8 construct: expressed in transfected cells; host or cells: CHO cells
T8 sequence (P29275 1-332): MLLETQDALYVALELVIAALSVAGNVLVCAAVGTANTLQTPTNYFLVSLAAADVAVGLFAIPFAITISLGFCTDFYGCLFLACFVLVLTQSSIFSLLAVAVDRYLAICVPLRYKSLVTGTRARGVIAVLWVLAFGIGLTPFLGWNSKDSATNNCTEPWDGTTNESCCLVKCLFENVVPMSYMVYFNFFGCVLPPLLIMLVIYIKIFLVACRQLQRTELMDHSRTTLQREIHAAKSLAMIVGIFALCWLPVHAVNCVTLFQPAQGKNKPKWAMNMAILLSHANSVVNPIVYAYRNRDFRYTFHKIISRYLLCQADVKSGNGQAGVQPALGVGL
Summary of the method: as §1

[4] = Thermodynamic solubility measurements; assay type: physicochemical; settings: thermodynamic from solid, thermodynamic solubility
Source text: This is expected to facilitate dissolution in the stomach. Depending on the substitution pattern they may also be well soluble at higher pH values (Brunschweiger et al., [2014]). In the present study we measured thermodynamic solubility of only very few compounds exemplarily (14a-e, 14g, 15f,g) and confirmed their high solubility at pH 1 (see Table S1 in Supplementary Material). Most of these compounds were still soluble at pH 7.4. The best soluble derivative was the 3-ethyl-1-methyl-8-m-fluorobenzyl derivative 14g with solubilities of >1.5 g/L (4.2 mM) at pH 1, 50 mg/L (0.14 mM) at pH 4, and 40 mg/L ([…]) at pH 7.4.
Table S1. Solubility of selected compounds at three different pH values (in mg/mL).a
Compound pH 1 pH 4 pH 7.4
adetermined by thermodynamic solubility measurements.

human A1 AR [5] = target: T1, human A1 AR; settings: human (h); Figure 3 and introduction; ref Drabczynska et al., 2007; Koch et al., 2013; Brunschweiger et al., 2014, 2016; read-out: A1 (Ki); cited from earlier work
human A2A AR [6] = target: T3, human A2A AR; settings: human (h); Figure 3 and introduction; ref Drabczynska et al., 2007; Koch et al., 2013; Brunschweiger et al., 2014, 2016; cited from earlier work
recombinant human MAO-B [7] = target: T7, recombinant human MAO-B; settings: human (h); Figure 2 and introduction; ref Chen et al., 2002; Pretorius et al., 2008; Wang et al., 2017; Stössel et al., 2013; cited from earlier work

Compound	Ki (human A1 AR [1]) [nM]	Ki (rat A1 AR) [nM]	Ki (rat A2A AR) [nM]	Ki (human A3 AR) [nM]	inhibition at 10 µM (recombinant human MAO-A) [%]	IC50 (recombinant human MAO-A) [nM]	IC50 (recombinant human MAO-B [3]) [nM]	% inhibition of radioligand binding at indicated concentration, A2A vs. [^3H]MSX-2 (rat A2A AR) [%]	inhibition at 10 µM (recombinant human MAO-B [3]) [%]	Ki (human A1 AR [5]) [nM]	Ki (human A2A AR [6]) [nM]	other results
CCCn1c(=O)c2c(nc3n2CCN(Cc2ccc(Cl)c(Cl)c2)C3)n(C)c1=O [Compound 18]	475 ± 47	152 ± 12	675 ± 104	12700	9	> 10000	2910					Ki (human A2A AR [2]; CHO cell membranes, n = 3, read-out: Ki ± SEM, A2A vs. [^3H]MSX-2): 2110 nM
CCn1c(=O)c2c(nc3n2CCN(Cc2cccc(Cl)c2)C3)n(C)c1=O [Compound 14i, 8-(3-chlorobenzyl)-3-ethyl-1-methyl-6,7,8,9-tetrahydropyrazino[2,1-f]purine-2,4(1H,3H)-dione]	121 ± 45	53 ± 5.8	> 1000		20	> 10000	≤ 10000	33	> 50			% inhibition of radioligand binding at indicated concentration, A2A vs. [^3H]MSX-2 (human A2A AR [2]; at 1,000 nM): 8%; inhibition at 10 µM (human A2B AR; at 10,000 nM, read-out: % inhibition of radioligand binding at indicated concentration, A2B vs. [^3H]PSB-603): 36%
CCn1c(=O)c2c(nc3n2CCN(Cc2ccccc2C(F)(F)F)C3)n(CC)c1=O [Compound 15f, 1,3-diethyl-8-(2-(trifluoromethyl)benzyl)-6,7,8,9-tetrahydropyrazino[2,1-f]purine-2,4(1H,3H)-dione]	129 ± 9	51.4 ± 14.7	> 1000	4060			> 10000	32	41			Ki (human A2B AR; CHO cell membranes, n = 2 (n = 3 where marked a), read-out: Ki ± SEM, A2B vs. [^3H]PSB-603): > 1000 nM; inhibition at 1 µM (human A2B AR; at 1,000 nM, read-out: % inhibition of radioligand binding at indicated concentration, A2B vs. [^3H]PSB-603): 2%; solubility ([4]; aqueous buffer, pH 4, read-out: Solubility, pH 4): 0.9 µg/mL (≈ 2.14 µM); solubility ([4]; aqueous buffer, pH 7.4, read-out: Solubility, pH 7.4): 0.7 µg/mL (≈ 1.66 µM); solubility ([4]; simulated gastric fluid, pH 1, read-out: Solubility, pH 1): 300 µg/mL (≈ 712 µM)
Cn1c(=O)c2c(nc3n2CCCN3Cc2ccccc2)n(C)c1=O [Compound 9a]										249	253	
Cn1c(=O)c2c(nc(/C=C/C=C/c3cccc(Br)c3)n2C)n(C)c1=O [Compound 4]												IC50 (recombinant human MAO-B [7]): 37.9 nM
1,3-Dimethyl-6,7,8,9-tetrahydropyrazino[2,1-f ]purine-2,4(1H,3H)-dione [Compound 10c]										116	94	
